Among the data in patent US20080160009A1, “Inhibiting Cav3 Isoforms and the 25B Splice Varients for the Diagnosis and Treatment of Cancer” (priority 2004, published 2008) are lifespan values, retold here.

SMILES strings stand for the structures.

The test system of this test is human PC3 prostate cancer cells. Description: Lifespan of SCID mice inoculated with human PC3 prostate cancer cells. The test is classed as in vivo.

Take `COc1ccc(CCN2CCC[C@H]2COC(c2ccccc2)c2ccc(Cl)cc2)cc1` (stereo partly shown) [TH-1177]: the lifespan entry is reported as “significantly extended the lifespan”.
